Assays:
[1] = test system: IL-4 signaling pathway; experiment: HEK-Blue IL-4 SEAP reporter assay; format: cell-based
Description: (§1) The effects of putative inhibitors on pro-inflammatory cytokine pathways are assessed using HEK-Blue cells engineered for the detection of bioactive cytokines via activation of JAK/STAT pathways and subsequent expression of the SEAP reporter gene. Cells are treated with their relevant cytokines+/−peptides or control antibodies, and 20 hours after treatment activation of the relevant cytokine receptor is determined via SEAP expression through mixing cell supernatants with a Quanti-Blue colorimetric reagent and measuring optical density at 600 nm.
Reporter lines HEK-Blue TL-4/TL-15/IFN-alpha were cultured in DMEM with GlutaMAX and 10% HI FBS (Gibco). Cells were seeded into black 96-well optical clear flat-bottomed PhenoPlates at densities of 25000 cells/well and 100 uL/well and allowed to rest overnight in a 37 C incubator with 5% CO2. After 24 hours, cells were treated with 10 μL of their relevant cytokines (StemCell Technologies) at the previously determined EC75 for activation (1.164 ng/mL for HEK-Blue IL-4, 2.26 ng/mL for HEK-Blue IL-15, and 0.456 ng/mL for HEK-Blue IFN-alpha), with or without 10 μL of peptides (5 uM final concentration) or control antibodies (1 ug/well). Cells were kept overnight in a 37 C incubator with 5% C02.
20-22 hours after treatment, 20 μL of the cell supernatants were collected and transferred to 96-well white flat opaque-bottom plates (Costar) and each sample was mixed with 180 μL of Quanti-Blue reagent. Colorimetric reactions were allowed to develop in a 37 C incubator with 5% C02 for a certain duration of time (3 hours for HEK-Blue IL-4, 2 hours for HEK-Blue IL-15, and 1 hour for IFN-alpha). Assay plates were then removed from the incubator and the optical density of each well was measured at 600 nm on a GloMax plate reader. Relative activation of the cytokine signaling pathway in question was determined by ratioing the optical density of each sample to the average optical density for the cytokine-only treated cells from the same plate.

[2] = test system: IL-15 signaling pathway; experiment: HEK-Blue IL-15 SEAP reporter assay; format: cell-based
Description: as §1
(§2) Reporter lines HEK-Blue TL-4/TL-15/IFN-alpha were cultured in DMEM with GlutaMAX and 10% HI FBS (Gibco). […] After 24 hours, cells were treated with 10 μL of their relevant cytokines (StemCell Technologies) at the previously determined EC75 for activation (1.164 ng/mL for HEK-Blue IL-4, 2.26 ng/mL for HEK-Blue IL-15, and 0.456 ng/mL for HEK-Blue IFN-alpha), with or without 10 μL of peptides (5 uM final concentration) or control antibodies (1 ug/well). […]
(§3) 20-22 hours after treatment, 20 μL of the cell supernatants were collected and transferred to 96-well white flat opaque-bottom plates (Costar) and each sample was mixed with 180 μL of Quanti-Blue reagent. […] Assay plates were then removed from the incubator and the optical density of each well was measured at 600 nm on a GloMax plate reader. […]

[3] = test system: IFN-alpha signaling pathway; experiment: HEK-Blue IFN-alpha SEAP reporter assay; format: cell-based
Description: as §1, §2, §3

[4] = test system: Interferon Regulatory Factor (IRF) pathway; experiment: Dual Reporter Assay: NF-kB-SEAP and IRF-Lucia luciferase reporter monocyte (THP1) cells +/- TLR agonists; format: cell-based, human
Description: (§4) To determine the effect of the Target Protein on TLR activity, the Target Protein, irrelevant proteins, and controls were applied+/−established TLR agonists to a commercial reporter cell line which monitors the two main signal transduction pathways that respond to TLR activation. To determine which primary, human, immune cells are most responsive to the Target Proteins, the Target Proteins were applied to Peripheral Blood Mononuclear Cells (PBMCs) and then 24 hours later the PBMCs were subjected to single cell RNA-seq.
Dual Reporter Assay: NF-kB-SEAP and IRF-Lucia luciferase reporter monocyte (THP1) cells (InvivoGen) are cultured in RPMI 1640 media supplemented with HEPES buffer (10 mM), sodium pyruvate (1 mM), glucose (4.5 g/L), fetal bovine serum (10%), penicillin (100 U/mL), streptomycin ([…]), and 2-mercaptoethanol (0.05 mM). THP1 cells are treated with 100 ng/mL LPS (Sigma-Aldrich) for 24 hrs, the target protein (final conc. 10 μM), or left untreated.
After treatment, THP1 cells are cultured for 24 hrs and then assayed for reporter activity. Both reporter proteins are measurable in the cell culture supernatant when using QUANTI-Blue (InvivoGen), a SEAP detection reagent, and QUANTI-Luc (InvivoGen), a luciferase detection reagent. QUANTI-Blue is a colorimetric enzyme assay developed to determine any alkaline phosphatase activity in a biological sample, such as cell culture supernatant. QUANTI-Luc is a lyophilized assay reagent containing all the components required to quantitatively measure the activity of Lucia Luciferase other coelenterazine-utilizing luciferases. Increased reporter activity after treatment with target protein is observed in cells where the target protein is immune stimulating. Additionally, decreased reporter activity after treatment with the target protein is observed in cells where the target protein is immune dampening.
as §4, with “proteins” for “proteins,”

[5] = test system: Peripheral Blood Mononuclear Cells (PBMCs); experiment: single cell RNA-seq of PBMCs treated with target protein; format: cell-based, human; conditions: 10 μM, 24 hours, vs scrambled protein control
Description: as §4
scRNA-seq: From example: Shifts in cell populations after treatment with Target Proteins are assessed by single cell RNA-seq (scRNA-seq). Target proteins (e.g., listed in Table 1) are synthesized through Fluorenylmethyloxycarbonyl (Fmoc) protection group chemistry using Solid Phase Peptide Synthesis (SPPS). […]
Post sequencing, reads are aligned to the human reference genome (GENCODE34/GRCH38). Reads are demultiplexed using DNA-barcoded antibodies and run through quality control (g. doublets are removed, singlet cells are selected with less than 15% mitochondria contamination at RNA levels and reads contain higher than 500 genes). […]
scRNA-seq: From example: Shifts in cell populations after treatment with Target Proteins are assessed by single cell RNA-seq (scRNA-seq). […]

[6] = peptide 5 uM, cytokine at EC75, SEAP OD 600 nm
[7] = THP-1 dual reporter cells, protein 10 μM vs scramble protein, 24 hours

Substance: SEQ ID NO: 1238_L8V: novel peptide capable of inhibiting pro-inflammatory cytokine pathways (LVVRWAVVVFRSSTAALPRAAEAARRSEKWPKTSALGRRS; listed as Homo sapiens)
- inhibitor of the IL-4 signaling pathway (grade in words) ([1]; FIG. 9): strong
- Relative activity (compared to cytokine only controls), Cytokine IL-15 [2, 6]: −70%

Substance: SEQ ID NO: 3915: novel peptide capable of activating the signaling pathway for IFN-alpha (LRRAIWGLLCLMVAEENQEASLRKLAVRRKFWRLGRATQRYSVAW; listed as Homo sapiens)
- activator of the IFN-alpha signaling pathway (grade in words) ([3]; FIG. 11): moderate activator
- Relative activity (compared to cytokine only controls), Cytokine IFN-a [3, 6]: +40%

Substance: SEQ ID NO: 6091: novel peptide capable of inhibiting pro-inflammatory cytokine pathways (IFLFLPIFSFPQIFLLLFYHLE; listed as Homo sapiens)
- Relative activity (compared to cytokine only controls), Cytokine IL-4 [1, 6]: −40%
- inhibitor of the IL-15 signaling pathway (grade in words) ([2]; FIG. 10): strong inhibitor

Substance: SEQ ID NO: 6516: novel, secreted peptide that inhibits the innate immune response caused by toll-like receptor agonists (MAAPSNKTELAWSPRLAA; listed as Homo sapiens)
- relative IRF activity (reporter gene expression) ([4]; THP-1 dual reporter cells, peptide 0, 2.5, 5, 7.5, and 10 μM in the presence of LPS, 24 hours): inhibition
- IRF response, co-treated with TLR1/2 agonist [4, 7]: inhibited
- IRF response, co-treated with TLR2 agonist [4, 7]: no significant effect
- IRF response, co-treated with TLR3 agonist [4, 7]: no significant effect
- IRF response, co-treated with TLR4 agonist [4, 7]: inhibited
- IRF response, co-treated with TLR5 agonist [4, 7]: no significant effect
- IRF response, co-treated with TLR6/2 agonist [4, 7]: inhibited
- IRF response, co-treated with TLR7 agonist [4, 7]: no significant effect
- IRF response, co-treated with TLR8 agonist [4, 7]: no significant effect
- IRF response, co-treated with TLR9 agonist [4, 7]: no significant effect
- IRF signal transduction pathway response from several TLRs ([4]; reporter cell line +/- TLR agonists): significantly blocks
- effect on T-cells, B-cells, and NK-cells (up/downregulated genes, scRNA-seq) [5]: relatively small effects
- effect on active monocytes and dendritic cells (up/downregulated genes, scRNA-seq) [5]: strongly affected

Source: patent publication US20250319115A1, “Compositions and Methods for Modulating Cytokines” (Flagship Pioneering Innovations VII, LLC, priority 2022, published 2025)
